Here are results for 15 compounds from patent US8067456B2 (AEterna Zentaris GmbH, priority 2004, dated 2011).

Counter-ions that a name gives are not always drawn.

In the first assay the target is T1, rat LHRH receptor (Rattus norvegicus, UniProt P30969).
T1 construct: expressed in transfected cells; host or cells: LTK cells (mouse fibroblasts, ATCC CCL-1.3)
T1 sequence (P30969 1-327): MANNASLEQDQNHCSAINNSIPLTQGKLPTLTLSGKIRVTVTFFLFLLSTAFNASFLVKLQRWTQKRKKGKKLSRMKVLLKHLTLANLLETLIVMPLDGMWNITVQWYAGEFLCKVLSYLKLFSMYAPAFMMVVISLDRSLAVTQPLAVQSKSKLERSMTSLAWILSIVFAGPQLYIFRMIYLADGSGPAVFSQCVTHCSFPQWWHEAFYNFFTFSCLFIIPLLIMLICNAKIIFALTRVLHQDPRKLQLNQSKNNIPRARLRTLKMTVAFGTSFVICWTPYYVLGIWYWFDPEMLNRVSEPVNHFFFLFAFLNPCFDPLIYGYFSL
Nature of the assay: LHRH receptor-ligand binding assay (transfected LTK cells).
Details: not given
As to the method: ^125I-Triptorelin [^125I-(D)-Trp6-GnRH] was purchased from Biotrend (Cologne, Germany).
The specific activity was in each case 2.13 Ci/mmol.
LTK cells (mouse fibroblasts: ATCC No. CCL-1.3) which have been transfected with the rat LHRH receptor are cultivated in DMEM medium (Invitrogen Life Technologies, Germany) with penicillin (100 I.U./ml), streptomycin (0.1 mg/ml) and glutamine (0.01 mol/l) and 10% fetal calf serum (FCS; Invitrogen Life Technologies, Germany) on plastic tissue culture plates (Nunc, Germany, 245×245-20 mm).
80% confluent cell culture plates are washed twice with 50 ml of phosphate-buffered saline (PBS) and then detached with 0.01 M EDTA solution. The cells are pelleted by centrifugation at 200·g for 5 min in a laboratory centrifuge (Kendro, Germany). The cell pellet is resuspended in 3 ml of binding medium (DMEM; 10 mM Hepes; 0.5% BSA; 0.1% […]; 1 g/l bacitracin (add fresh, stock 100×); 0.1 g/l SBTI (add fresh, stock 1000×) and the cell count is determined by Trypan blue staining in a Neubauer counting chamber. The cell suspension is adjusted with binding medium to a concentration of 5×10^5 cells/0.05 ml.
Binding studies for competition plots are carried out as duplicates. The test substances are employed as 10 mM DMSO solutions. They are diluted to 4 times the final concentration employed with binding medium. 25 μl of the substance dilution are mixed with 25 μl of tracer solution (^125I-triptorelin or ^125I-cetrorelix). The tracer concentration is adjusted to approx. 50 000 cpm (measured in a Cobra II, γ counter. PE Liefe Science, Germany) in the final reaction volume of 100 μl.
200 μl of silicone/liquid paraffin mixture (84%:16%) are introduced into 650 μl conical tubes (Roth. Germany). 50 μl of the cell suspension are pipetted thereon, followed by 50 μl of the test substance/tracer mixture. The tubes are capped and incubated with vertical rotation in an incubator at 37° C. for 60 min. After incubation, the samples are centrifuged in a centrifuge (Kendro, Germany) at 900 rpm and subsequently shock-frozen in liquid N2. The tip with the cell pellet is cut off and transferred into prepared counting vials (Roth, Germany). The remainder of the conical tube with the remaining supernatant is likewise transferred into a counting vial. The measurement takes place in a γ counter for 1 min/sample.
Evaluation of the samples takes place after calculation of the specific binding compared with untreated cells, after subtraction of the nonspecific binding (excess of unlabeled ligand, 1 μM) by means of GraphPad Prism or alternatively by means of OMMM software.
What is called EC50 is the concentration needed to bring the measured effect to its halfway point. For the compound `CCC(C)[C@H](NC(=O)[C@@]1(NC(=O)[C@H](CCc2ccc(OP(=O)(O)O)cc2)NC(=O)OCc2ccccc2)CCc2[nH]c3c(Cl)cc(Cl)cc3c2C1)C(N)=S` (stereo partly drawn) [Compound 12, benzyl[(S)-1-[(R)-6,8-dichloro-3-((S)-2-methyl-1-thiocarbamoylbutylcarbamoyl)-2,3,4,9-tetrahydro-1H-carbazol-3-ylcarbamoyl]-3-(4-phosphonooxyphenyl)propyl]carbamate], the EC50 was 39.2 nM.

Still in this assay, the particulars now being: LTK cells transfected with rat LHRH receptor, 125I-triptorelin tracer, 37° C., 60 min; read-out: Binding to r-LHRHR EC50.
As to `CCC(C)[C@H](NC(=O)[C@@]1(NC(=O)[C@H](CCc2ccc(OCCOCCOCCOCCOC)cc2)NC(=O)OCc2ccccc2)CCc2[nH]c3c(Cl)cc(Cl)cc3c2C1)C(N)=S` (stereo partly drawn) [Compound 24, benzyl {(S)-1-[(R)-6,8-dichloro-3-((S)-2-methyl-1-thiocarbamoylbutylcarbamoyl)-2,3,4,9-tetrahydro-1H-carbazol-3-ylcarbamoyl]-3-[4-(2-{2-[2-(2-methoxyethoxy)ethoxy]-ethoxy}ethoxy)phenyl]propyl}carbamate], the EC50 was 13.5 nM.
Same read-out and setting: in the case of `CCC(C)[C@H](NC(=O)[C@@]1(NC(=O)[C@H](CCc2ccc(O)cc2)NC(=O)CCc2ccccc2F)CCc2[nH]c3c(Cl)cc(Cl)cc3c2C1)C(N)=O` (stereo partly drawn) [Compound 22] it was 24.6 nM; in that of `CC(C)[C@H](NC(=O)[C@@]1(NC(=O)[C@@H](NC(=O)OCc2ccc(Cl)cc2)C(C)C)CCc2[nH]c3c(Cl)cc(Cl)cc3c2C1)C(N)=O` [Compound 1, 4-chlorobenzyl {(S)-1-[(R)-3-((S)-1-carbamoyl-2-methylpropylcarbamoyl)-6,8-dichloro-2,3,4,9-tetrahydro-1H-carbazol-3-ylcarbamoyl]-2-methylpropyl}carbamate], 261 nM; in that of `CCC(C)[C@H](NC(=O)[C@@]1(NC(=O)[C@@H](NC(=O)OCc2ccc(Cl)cc2)C(C)CC)CCc2[nH]c3c(Cl)cc(Cl)cc3c2C1)C(N)=O` (stereo partly drawn) [Compound 3, 4-chlorobenzyl {(S)-1-[(R)-3-((S)-carbamoyl-2-methylbutylcarbamoyl)-6,8-dichloro-2,3,4,9-tetrahydro-1H-carbazol-3-ylcarbamoyl]-2-methylbutyl}carbamate], 47.2 nM.
On the same count and under the same terms, in the case of `CCC(C)[C@H](NC(=O)[C@@]1(NC(=O)[C@@H](NC(=O)Cc2cccc(F)c2)C(C)CC)CCc2[nH]c3c(Cl)cc(Cl)cc3c2C1)C(N)=O` (stereo partly drawn) [Compound 5, (R)-6,8-dichloro-3-{(S)-2-[2-(3-fluorophenyl)acetylamino]-3-methylpentanoylamino}-2,3,4,9-tetrahydro-1H-carbazole-3-carboxylic acid ((S)-1-carbamoyl-2-methylbutyl)amide] it was 98.3 nM.
The same measure, in the same setting: under “2-chlorobenzyl {(S)-1-[(R)-3-((S)-carbamoyl-2-methylbutylcarbamoyl)-6,8-dichloro-2,3,4,9-tetrahydro-1H-carbazol-3-ylcarbamoyl]-2-methylbutyl}carbamate [Compound 6]” stands 104 nM; under `CCC(C)[C@H](NC(=O)Cc1ccccc1F)C(=O)N[C@]1(C(=O)N[C@H](C(N)=S)C(C)CC)CCc2[nH]c3c(Cl)cc(Cl)cc3c2C1` (stereo partly drawn) [Compound 13, (R)-6,8-dichloro-3-{(S)-2-[2-(2-fluorophenyl)acetylamino]-3-methylpentanoylamino}-2,3,4,9-tetrahydro-1H-carbazole-3-carboxylic acid ((S)-2-methyl-1-thiocarbamoylbutyl)amide], 2.4 nM.
As to `CCC(C)[C@H](NC(=O)[C@@]1(NC(=O)[C@H](CCc2ccc(OC(=O)OCc3ccccc3)cc2)NC(=O)OCc2ccccc2)CCc2[nH]c3c(Cl)cc(Cl)cc3c2C1)C(N)=O` (stereo partly drawn) [Compound 8, benzyl 4-{(S)-3-benzyloxycarbonylamino-3-[(R)-3-((S)-1-carbamoyl-2-methylbutylcarbamoyl)-6,8-dichloro-2,3,4,9-tetrahydro-1H-carbazol-3-ylcarbamoyl]propyl}phenylcarbonate], the EC50 came to 45.3 nM.
As to `CCC(C)[C@H](NC(=O)[C@@]1(NC(=O)[C@H](CCc2ccc(O)cc2)NC(=O)Cc2ccccc2F)CCc2[nH]c3c(Cl)cc(Cl)cc3c2C1)C(N)=S` (stereo partly drawn) [Compound 14, (R)-6,8-dichloro-3-[(S)-2-[2-(2-fluorophenyl)acetylamino]-4-(4-hydroxyphenyl)butyrylamino]-2,3,4,9-tetrahydro-1H-carbazole-3-carboxylic acid ((S)-2-methyl-1-thiocarbamoyl-butyl)amide], the EC50 was 2.05 nM.
Still for that read-out and setting: under `CCC(C)[C@H](NC(=O)OCc1ccc(Cl)cc1)C(=O)N[C@]1(C(=O)N[C@H](C(N)=O)C(C)C)CCc2[nH]c3c(Cl)cc(Cl)cc3c2C1` (stereo partly drawn) [Compound 2, 4-chlorobenzyl {(S)-1-[(R)-3-((S)-1-carbamoyl-2-methylpropylcarbamoyl)-6,8-dichloro-2,3,4,9-tetrahydro-1H-carbazol-3-ylcarbamoyl]-2-methylbutyl}carbamate] stands 205 nM.
As to `CCC(C)[C@H](NC(=O)[C@@]1(NC(=O)[C@@H](NC(=O)CCc2ccccc2F)C(C)CC)CCc2[nH]c3c(Cl)cc(Cl)cc3c2C1)C(N)=O` (stereo partly drawn) [Compound 23, (R)-6,8-dichloro-3-{(S)-2-[3-(2-fluorophenyl)propionylamino]-3-methylpentanoylamino}-2,3,4,9-tetrahydro-1H-carbazole-3-carboxylic acid ((S)-1-carbamoyl-2-methylbutyl)amide], the EC50 came out at 72.9 nM.
On the same count and under the same terms, under `CCC(C)[C@H](NC(=O)OCc1ccccc1)C(=O)N[C@]1(C(=O)N[C@H](C(N)=S)C(C)CC)CCc2[nH]c3c(Cl)cc(F)cc3c2C1` (stereo partly drawn) [Compound 25, benzyl {(S)-1-[(R)-8-chloro-6-fluoro-3-((S)-2-methyl-1-thiocarbamoylbutylcarbamoyl)-2,3,4,9-tetrahydro-1H-carbazol-3-ylcarbamoyl]-2-methylbutyl}carbamate] stands 4.2 nM; under `CC(C)[C@H](NC(=O)[C@@]1(NC(=O)[C@H](CCCCN)NC(=O)CCc2ccc(F)cc2)CCc2[nH]c3c(Cl)cc(Cl)cc3c2C1)C(N)=O` [Compound 17, (S)-5-[(R)-3-((S)-1-carbamoyl-2-methylpropylcarbamoyl)-6,8-dichloro-2,3,4,9-tetrahydro-1H-carbazol-3-ylcarbamoyl]-5-[3-(4-fluorophenyl)propionylamino]pentylammonium trifluoroacetate], 525 nM; under `CCC(C)[C@H](NC(=O)CCc1ccc(F)cc1)C(=O)N[C@]1(C(=O)N[C@H](C(N)=O)C(C)C)CCc2[nH]c3c(Cl)cc(Cl)cc3c2C1` (stereo partly drawn) [Compound 16, (R)-6,8-dichloro-3-((S)-2-[3-(4-fluorophenyl)propionylamino]-3-methylpentanoylamino)-2,3,4,9-tetrahydro-1H-carbazole-3-carboxylic acid ((S)-1-carbamoyl-2-methylpropyl)amide], 628 nM.
